Laboratory results reported in patent US7250423B2, “Methods for synthesizing heterocycles and therapeutic use of the heterocycles for cancers” (priority 2001, dated 2007).

Experiments:
Format in all cases: cell-based, human
[1] = system: NCI-H460 (Non Small Cell Lung); experiment: 3-cell line, one dose primary anticancer assay (NCI); conditions: 1.000E−04 Molar, 48 hours, percent of growth vs untreated control cells; negative numbers indicate cell kill
Procedure: (§1) The following cell culture tests were performed by the National Cancer Institute of the National Institute of Health. The compounds listed below have been evaluated in the 3-cell line, one dose primary anticancer assay. The compounds which pass our criteria for activity in this assay will be scheduled automatically for evaluation against the full panel of 60 tumor cell lines. For the past 10 years, the Development Therapeutic Program (DTP), Division of Cancer Treatment and Diagnosis (DCTD), National Cancer Institute (NCI) has used an in vitro model consisting of 60 human tumor cell lines as the primary anticancer screen [Ref: J. Natl, Cancer Inst., 83:757-766, 1991].
(§2) 95% of the actives from the 60 cell line screen can be identified using only three cell lines. For this reason, the DTP has now begun using, as its primary anticancer assay, a 3-cell line panel consisting of the MCF7 (Breast), NCI-H460 (Lung), and SF-268 (CNS). This 3-cell line, one-dose assay has been in use by DTP for several years for the evaluation of combinatorial libraries and has proven to be an effective pre-screen.
(§3) In the current protocol, each cell line is inoculated and preincubated on a microtiter plate. Test agents are then added at a single concentration and the culture incubated for 48 hours. End-point determinations are made with alamar blue (Biotechniques 21(5) 780-782 (1996)). Results for each test agent are reported as the percent of growth of the treated cells when compared to the untreated control cells. Compounds which reduce the growth of any one of the cell lines to approximately 32% or less (negative numbers indicate cell kill) are passed on for evaluation in the full panel of 60 cell lines over a 5-log dose range.

SF-268 (CNS) = experiment: as above; conditions: 1.000E−04 Molar, 48 hours, percent of growth vs untreated control cells; negative numbers indicate cell kill
Procedure: as §1, §2, §3

MCF7 (Breast) = experiment: as above; conditions: 1.000E−04 Molar, 48 hours, percent of growth vs untreated control cells; negative numbers indicate cell kill
Procedure: as §1, §2, §3

[2] = system: MDA-MB-435 (breast cancer); experiment: 60 cell-line tests; conditions: even at 1.000E-08 molar concentration
Procedure: as §1, §3

Delta cancer cell lines = experiment: 60 cell-line tests
Procedure: as §1, §3

other cell lines = experiment: 60 cell-line tests; conditions: other cell lines of the 60 cell-line panel
Procedure: as §1, §3

PC-3 (prostate cancer) = experiment: 60 cell-line tests
Procedure: as §1, §3

[3] = system: EKVX (non-small cell lung cancer); experiment: 60 cell-line tests; conditions: even at 1.000E-08 molar concentration
Procedure: as §1, §3

SF-539 (CNS cancer) = experiment: 60 cell-line tests; conditions: even at 1.000E-08 molar concentration
Procedure: as §1, §3

DU-145 (prostate cancer) = experiment: 60 cell-line tests; conditions: even at 1.000E-08 molar concentration
Procedure: as §1, §3

[4] = system: CCRF-CEM (and other leukemia cancer cells); experiment: 60 cell-line tests
Procedure: as §1, §3

HCT (colon cancer) = experiment: 60 cell-line tests
Procedure: as §1, §3

CAKI-1 (renal cancer) = experiment: 60 cell-line tests
Procedure: as §1, §3

[5] = system: NCI-H522 (non-samll cell lung cancer); experiment: 60 cell-line tests
Procedure: as §1, §3

Compound | Growth Percentage (Non Small Cell Lung) NCI-H460 [1] | Growth Percentage (CNS) SF-268 (SF-268 (CNS)) | Growth Percentage (Breast) MCF7 (MCF7 (Breast)) | killing of cancer cells [2] | killing of cancer cells (Delta cancer cell lines; Delta cancer cell lines, even at 1.000E-08 molar concentration) | effect against other cell lines (other cell lines) | killing of cancer cells (PC-3 (prostate cancer); even at 1.000E-08 molar concentration) | killing of cancer cells [3] | killing of cancer cells (SF-539 (CNS cancer)) | killing of cancer cells (DU-145 (prostate cancer)) | selectivity for cancer cells [4] | selectivity for cancer cells (HCT (colon cancer)) | selectivity for cancer cells (Delta cancer cell lines; Delta cancer) | selectivity for cancer cells (CAKI-1 (renal cancer)) | selectivity for cancer cells (PC-3 (prostate cancer)) | selectivity for cancer cells [5]
6,6a,7,8-tetrahydro-7-(2-o-hydroxyphenyl)ethyl-2H-benzopyrano[3,2-a]quinoline [4-1] | 0% | 0% | 0% |  |  |  |  |  |  |  |  |  |  |  |  | 
OCCCCC1Nc2ccc(Nc3ccccc3)cc2C2OCCCC12 (stereo not shown) [3-1, 3,4,4a,5,6,10b-hexahydro-5-(4-hydroxybutyl)-9-phenylamino-2H-pyrano[3,2-c]quinoline] | −1% | −1% | −1% | highly potent and selectively killed | highly potent and selectively killed | very week effect | highly potent and selectively killed | highly potent and selectively killed | highly potent and selectively killed | highly potent and selectively killed |  |  |  |  |  | 
OCCCC1Nc2ccc(Nc3ccccc3)cc2C2OCCC12 (stereo not shown) [3-2, 2,3,3a,4,5,9b-hexahydro-4-(3-hydroxypropyl)-8-phenylamino-furano[3,2-c]quinoline] | 57% | 22% | 0% |  |  |  |  |  |  |  |  |  |  |  |  | 
CN(C)c1ccc2c(c1)C1OCCC1C(CCCO)N2 (stereo not shown) [3-3, 2,3,3a,4,5,9b-hexahydro-4-(3-hydroxypropyl)-8-dimethylamino-furano[3,2-c]quinoline] | 100% | 77% | 7% |  |  |  |  |  |  |  |  |  |  |  |  | 
OCCCCC1Nc2ccc(O)cc2C2OCCCC12 (stereo not shown) [5-1, 3,4,4a,5,6,10b-hexahydro-5-(4-hydroxybutyl)-9-hydroxy-2H-pyrano[3,2-c]quinoline] | 29% | 2% | 0% |  |  |  |  |  |  |  | moderately selective | moderately selective | highly selective | moderately selective | highly selective | moderately selective
